Results taken from patent US20140322744A1, “CLONABLE TAG FOR CORRELATIVE LIGHT AND ELECTRON MICROSCOPY LABELING” (INSTITUT CURIE, priority 2011, published 2014).

Tested on: E. coli K-12
Experiment: Minimal Inhibitory Concentration (MIC) growth test of EuCl3
Format: cell-based
Text: The inventors were first interested in evaluating Eu toxicity in their working conditions. To this purpose, they have submitted E. coli to a serial of growing tests called Minimal Inhibitory Concentration (MIC). This test aimed to determine the lowest concentration able to inhibit the bacteria growth. It consisted in growing bacteria in presence of several concentrations of the tested compound.
Serial dilution series of the substance to be tested were inoculated with bacteria at 0.3 D.O550 nm diluted 1/16000 in culture medium. D.O550 nm was followed until stationary phase. Minimal concentration of the test substance preventing stationary phase was considered as MIC.
For the Eu MIC determination, the inventors have tested EuCl3 concentrations between 100 μM and 2 mM. E. coli K-12 and pBAD arabinose inducible MTtag transformed E. coli K-12 were tested. E. coli K12 were transformed by electroporation with the pBAD plasmid down control of BAD promoter (Guzman, L. M., et al. J Bacteriol 177, 4121-4130 (1995); Khlebnikov, A. & Keasling, J. D. Biotechnol. Prog. 18, 672-674 (2002)). Bacteria pre-cultures were produced at 37° C. in Luria-Bertani (LB) medium with added ampicillin ([…]) in transformed strain. The pre-cultures were used to inoculate tubes of minimum media M9 (with or without ampicillin) until exponential phase D.O550 nm≈0.3. Then, 1/16000 dilutions were prepared in M9 medium (with or without ampicillin). 1 μl of the diluted bacteria were added to 200 μl of M9-EuCl3 at different concentrations in 96 wells plates. Bacterial grow was followed until stationary phase. The D.O550 nm was measured on a Tecan Infinite 200 PRO.

With [Cl][Eu]([Cl])[Cl] [EuCl3] the “Effect on bacterial growth” value (E. coli K-12 MG1655 growth curve, several concentrations of Europium (FIG. 1)) was “doesn't have a dramatic negative effect on bacterial growth”, the “MIC: EuCl3 concentration until which bacteria is viable” value (E. coli K-12 and MTtag transformed E. coli K-12, M9 medium, 100 μM to 2 mM tested, repeated 10 times) was “higher than 2 mM” and the “Precipitation above maximal concentration tested” value (M9 medium, maximal concentration tested 2 mM) was “precipitates at higher concentrations”. For the same molecule, the “EuCl3 concentration after which growing slow down is observed” value (does not impact bacterial viability) was greater than 1 mM and the “Toxicity for E. coli K-12” value (transformed or not) was “not toxic”.
